# According to PMC7190830, “Neuromedin U signaling regulates retrieval of learned salt avoidance in a C. elegans gustatory circuit” (Nature Communications, 2020):
# Where “and” joins values, the source holds several entries; their conditions need not be identical. Equal entries are not always repeated. Where two headings read alike, the source gives them in different places. No end group written: not given here.
# What was measured:
# C. elegans = test: Optogenetic silencing of ASG during conditioning or navigation of a 0-50 mM NaCl gradient; assay type: in vivo; settings: ATR, single replicates
# From the text: From left to right n = 51, 59, 43, 44 animals per condition. […] (bottom panel). Scale bar, 20 µm. f Optogenetic silencing of ASG. Individual worms are illuminated with yellow–green light for silencing CAPA-1 neurons during conditioning (acquisition phase) or during the NaCl chemotaxis assay when worms are navigating a linear NaCl gradient (retrieval phase) (see Methods for details). Arch requires supplementation of the cofactor all-trans retinal (ATR) to the worm culture. Transgenic C. elegans not fed ATR-supplemented food serve as a negative control. After conditioning, worms are put in the middle of a chemotaxis plate with a linear NaCl gradient (0–50 mM) and kept in the field-of-view using an automated xy-stage. […] Corresponding biased random walk and klinotaxis indices shown in Supplementary Fig. 10a, b. The time interval for statistical comparison was reduced to 5 min to accommodate the small plate format. g, h From left to right n = 10, 12, 14, 14, 12, 12, 14, 11 animals per condition. Shaded regions on a and g represent S.E.M. while black bars indicate the time interval for calculating the mean gradient position and behavioral indices. Significances determined by two-way ANOVA with Tukey’s HSD post hoc test. n.s. not significant; *p ≤ 0.05; **p ≤ 0.01; ***p ≤ 0.001. Boxplots show medians, 25th and 75th percentiles as box limits. The whiskers extend to the most extreme data points not considered as outlier.
# Transgenic worms expressing the outward-directed proton pump Arch in ASG were cultured at 25 °C on culture plates seeded with sufficient OP50 E. coli. One day before the assay, transgenic worms were transferred to OP50 culture plates to which all-trans retinal (ATR, Sigma Aldrich) has been added (300 µM final concentration in fresh OP50 liquid culture). This cofactor is needed for Arch activity, and allows transgenic worms transferred to culture plates without ATR to serve as negative control. A 0 to 50 mM linear gradient was generated in a 55 mm Petri plate. First, 15 mL buffered CTX agar supplemented with 50 mM NaCl was poured in a 55 mm diameter Petri dish elevated to one side. An additional 15.5 mL buffered CTX agar without NaCl was poured on top of the first triangular wedge once it solidified. NaCl was allowed to diffuse at least 24 h prior the assay. Individual worms were washed for 15 min in a small volume of CTX buffer with or without 100 mM NaCl (NaCl-conditioning or mock-conditioning). After conditioning the worm was transferred to the center of the 0 to 50 mM NaCl gradient plate, mounted on a Zeiss AxioObserver Z1 microscope. The animal was then allowed to navigate the plate for 10 min while an automated xy-stage kept it in the field-of-view. […] Each animal’s path was reconstructed based on the recorded low-resolution video-stream and the logged stage positions. The behavior was then segmented and indices reflecting chemotaxis behavior were calculated as described above.
# Supplementary Fig. 10. Behavioral effects of silencing CAPA-1 neurons (related to Fig. 7) The inhibitory opsin Arch is expressed in ASG under control of the capa-1 promoter. Individual transgenic worms are illuminated with yellow-green light for ASG silencing while being conditioned, or when they are navigating an agar plates with a 0 to 50 mM NaCl linear gradient (a-b) or no gradient (c-d). Arch requires the cofactor all-trans retinal (ATR) to be supplemented to the worm culture.
# Transgenic C. elegans not fed ATR-supplemented food serve as a negative control. See Methods for details. (a) Biased random walk and (b) klinotaxis indices for mock- and NaCl-conditioned animals navigating a 0 to 50 mM NaCl gradient. (a-b) From left to right n = 10, 12, 14, 14, 12, 12, 14, 11 animals per condition. (c) Mean speed of individual worms and (d) the fraction of time in each behavioral state when worms are navigating a plate without NaCl. From left to right n = 7, 7, 7, 7, 7, 7, 5, 7 animals per
# NMUR-1 = target: T1, NMUR-1 (Caenorhabditis elegans, UniProt Q18701); test: Luminescence-based (aequorin) calcium mobilization assay for GPCR activation, NMUR-1 expressed in CHO cells; assay type: cell-based; settings: calcium response, aequorin luminescence 496 nm, 30 s, CHO K1 cells stably overexpressing apo-aequorin and human Gα16, transiently transfected nmur-1/pcDNA3.1, 0.1 nM to 100 µM, HPLC-purified peptides, read-out: EC50 (half maximal effective concentration) to activate NMUR-1
# T1 sequence (Q18701 1-400): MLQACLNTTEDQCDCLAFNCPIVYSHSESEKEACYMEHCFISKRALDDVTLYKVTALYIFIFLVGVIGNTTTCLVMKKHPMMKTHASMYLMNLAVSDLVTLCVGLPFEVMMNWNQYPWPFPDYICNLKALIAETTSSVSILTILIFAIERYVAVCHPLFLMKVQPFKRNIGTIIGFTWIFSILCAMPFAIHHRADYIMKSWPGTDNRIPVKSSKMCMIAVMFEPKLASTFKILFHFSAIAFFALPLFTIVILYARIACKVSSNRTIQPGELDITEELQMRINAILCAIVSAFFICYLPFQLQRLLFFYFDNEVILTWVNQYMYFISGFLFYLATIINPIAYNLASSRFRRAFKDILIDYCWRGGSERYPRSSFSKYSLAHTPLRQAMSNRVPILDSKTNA
# From the text: Cells transfected with an empty pcDNA3.1 vector are used as a control. Error bars show S.E.M. CAPA-1-1 n = 6; CAPA-1-2 n = 6; CAPA-1-3 n = 5 experimental repeats. c The […] encodes a neuropeptide precursor that harbors three predicted peptide sequences (CAPA-1-1, -2, and -3), which are flanked by mono- and dibasic cleaving sites. Black bars indicate the positions of deletions in […]-44 mutant alleles used in this study. d Sequence comparison of C. elegans CAPA-1 neuropeptides and NmU neuropeptides from H. sapiens, D. rerio, and D. melanogaster. Conserved C-terminal features are highlighted in black. Residues with similar physicochemical properties are colored gray.
# [1] = NaCl-conditioned, Time Window Silencing: Navi - Retrieval
# [2] = NaCl-conditioned, Time Window Silencing: Wash - conditioning
# [3] = mock-conditioned, Time Window Silencing: Navi - Retrieval
# [4] = mock-conditioned, Time Window Silencing: Wash - conditioning
# [5] = CAPA-1-1 n = 6, CAPA-1-3 n = 5 experimental repeats
compound,measurement,setting,value
CC1=C(/C=C/C(C)=C/C=C/C(C)=C/C=O)C(C)(C)CCC1 [ATR],Fraction of time in Pause,C. elegans; [1],0
same,Fraction of time in Run,C. elegans; [1],0.741 and 0.8212 and 0.8921 and 0.8348 and 0.9414 and 0.927 and 0.8623
same,Fraction of time in Turn,C. elegans; [1],0.1151 and 0.03803 and 0.0668 and 0.04464 and 0.02467 and 0.01439
same,Fraction of time in Pause,C. elegans; [2],0
same,Fraction of time in Pirouette,C. elegans; [2],0.1562 and 0.1901 and 0.02158 and 0.1641 and 0.1069 and 0 and 0.05344
same,Fraction of time in Run,C. elegans; [2],0.7451 and 0.7688 and 0.9609 and 0.8359 and 0.888 and 0.9702 and 0.8828
same,Fraction of time in Turn,C. elegans; [2],0.09866 and 0.04111 and 0.01747 and 0 and 0.005139 and 0.0298 and 0.06372
same,Fraction of time in Pirouette,"C. elegans; NaCl, Time Window Silencing: Navi - Retrieval",0.1439 and 0.1408 and 0.04111 and 0.1205 and 0.03392 and 0.0483 and 0.1233
same,Fraction of time in Pause,C. elegans; [3],0
same,Fraction of time in Pirouette,C. elegans; [3],0.1326 and 0.1912 and 0.112 and 0.1439 and 0.1819 and 0.2179 and 0.1771
same,Fraction of time in Run,C. elegans; [3],0.7564 and 0.7081 and 0.7595 and 0.8171 and 0.6516 and 0.7513 and 0.7264
same,Fraction of time in Turn,C. elegans; [3],0.111 and 0.1007 and 0.1285 and 0.03905 and 0.1665 and 0.03083 and 0.0965
same,Fraction of time in Pause,C. elegans; [4],0
same,Fraction of time in Pirouette,C. elegans; [4],0.3217 and 0.03289 and 0 and 0.6616 and 0.1079 and 0.1788 and 0.04317
same,Fraction of time in Run,C. elegans; [4],0.6208 and 0.8756 and 0.9106 and 0.3384 and 0.8016 and 0.8068 and 0.9085
same,Fraction of time in Turn,C. elegans; [4],0.05755 and 0.09147 and 0.08941 and 0 and 0.09044 and 0.01439 and 0.0483
AFFYTPRI-NH2 [CAPA-1-3],EC50,NMUR-1; [5],142 nM
LYMARV-NH2 [CAPA-1-2],EC50,NMUR-1; CAPA-1-2 n = 6 experimental repeats,8000 nM
APHPSSALLVPYPRV-NH2 [CAPA-1-1],EC50,NMUR-1; [5],6 nM
